In one data set the target is T1, human MrgprX1 (Homo sapiens, UniProt Q96LB2).
T1 construct: expressed in transfected cells
The experiment in a line: MrgprX1 positive allosteric modulator (PAM) calcium FLIPR assay in HEK293 cells. It is filed as cell-based. Conditions: PAM activity in presence of EC20 concentration of BAM8-22; HEK293 cells stably transfected with human MrgprX1. The method, then: HEK293 cells stably transfected with human MrgprX1 were plated onto poly-D-lysine-coated, black-walled, 96-well plates at a seeding density of 12,000 cells/well and grown for two days. On the day of the experiment, cells were incubated with Fluo-4 AM 2 μM, pluronic acid 0.04% and Trypan Red 1% in HBSS (pH 7.4, 100 μL) for 1 h at 37° C. For each different passage of cells, a BAM8-22 dose response was first conducted and the BAM8-22 EC20 determined. Test compounds were then dissolved and serially diluted in DMSO, further diluted with Trypan Red (1%)-containing HBSS (50 μL) and added to cells (0.33% DMSO concentration by volume) to first monitor for agonist activity. After 2.5 min, BAM8-22 at 4-fold EC20 (50 μL) was added to cells (0.25% DMSO concentration by volume) and the cells imaged on the FLIPR for an additional 2 minutes to monitor the test compounds for PAM activity. Finally, data were normalized to fluorescence signals obtained from 250 nM of BAM8-22 (maximum) and BAM8-22 at its EC20 concentration (minimum). EC50 of a test compound was defined as the concentration required to provoke a response halfway between the minimum and maximum response in the presence of EC20 concentration of BAM8-22.

Data set [1] can be described thus: Metabolic stability in human liver microsomes. It is filed as in vitro ADME. The method, then:
[The procedure below names another species; the source lists this species under the same test.] (§1) The metabolic stability was evaluated using mouse liver microsomes. For the cytochrome P450 (CYP)-mediated metabolism, the reaction was carried out with 100 mM potassium phosphate buffer, pH 7.4, in the presence of NADPH regenerating system (1.3 mM NADPH, 3.3 mM glucose 6-phosphate, 3.3 mM MgCl2, 0.4 U/mL glucose-6-phosphate dehydrogenase, 50 μM sodium citrate). Reactions, in triplicate, were initiated by addition of the liver microsomes to the incubation mixture (compound final concentration was 5 μM; 0.5 mg/mL microsomes). After 60 min of incubation, aliquots of the mixture were removed and the reaction quenched by addition of three times the volume of ice-cold acetonitrile spiked with the internal standard. Compound disappearance was monitored over time using a liquid chromatography and tandem mass spectrometry (LC/MS/MS) method.
In general terms: Microsomes from liver hold many membrane-bound enzymes, among them those of drug oxidation.

Data set [2] can be described thus: In vivo oral pharmacokinetics in mice. The following applies: 100 mg/kg oral; for Tmax: male, CD-1, mouse. The method, then: Male CD-1 mice between 25 and 30 g were obtained from Harlan, and maintained on a 12-h light-dark cycle with ad libitum access to food and water. Three animals were used per time-point for each treatment group. Compound 7a was dissolved in 5% dimethyl acetamide, 10% Tween80, 10% Cremophor EL, 25% PEG400, and 50% water, and administered to male mice as a single oral dose by oral gavage of 100 mg/kg. The mice were sacrificed at various time points post-drug administration. Animals were euthanized with CO2, and blood samples were collected in heparinized microtubes by cardiac puncture. Brain and spinal cord tissues were dissected and immediately flash frozen (−80° C.). Blood samples were spun at 2,000×g for 15 min, plasma was removed and stored at −80° C. until LC-MS analysis. Prior to extraction, frozen samples were thawed on ice. The calibration curves were developed using plasma and brain from naïve animals as a matrix. Plasma samples (50 μL), were processed using a single liquid extraction method by addition of 300 μL of acetonitrile as with internal standard (losartan: 0.5 μM), followed by vortex mixing for 30 sec and then centrifugation at 10,000×g for 10 min at 4° C. Fifty microliter of the supernatant is diluted with 50 μL of water and transferred to 250 μL polypropylene autosampler vials sealed with a Teflon cap. For brain and spinal cord tissue analysis, samples were weighed in the range of (80-100 mg) to which 2-volumes of acetonitrile as with internal standard (losartan: 0.5 μM) was added and homogenized for extraction of the analyte. Samples were vortex mixed for 1 min and centrifuged as above. A 20 μL aliquot of supernatant was diluted with 20 μL of water and transferred to 250 μL polypropylene autosampler vials sealed with a Teflon cap. A volume of 3 μL was injected onto the ultra-performance liquid chromatography (UPLC) instrument for quantitative analysis by LC-MS/MS. Samples were analyzed on a Thermo Scientific Accela UPLC system coupled to Accela open autosampler at ambient temperature with an Agilent Eclipse Plus column (100×2.1 mm i.d.) packed with a 1.8 μm C18 stationary phase. The autosampler was temperature controlled and operated at 10° C. The mobile phase used for the chromatographic separation was composed of acetonitrile/water containing 0.1% formic acid and with a flow rate of 0.4 mL/min for 4.5 min using gradient elution. The column effluent was monitored using TSQ Vantage triple-quadrupole mass-spectrometric detector, equipped with an electrospray probe set in the positive ionization mode. Samples were introduced into the ionization source through a heated nebulized probe (350° C.).

Data set [3] in a line: Metabolic stability in mouse liver microsomes. It is filed as in vitro ADME. Conditions: mouse liver microsomes 0.5 mg/mL, NADPH, compound 5 μM, 60 min. The method, then:
as §1

Data set [4] has as its system MrgprX1 mice after sciatic CCI. The experiment in a line: Chronic constrictive injury (CCI) model, heat hypersensitivity (Hargreaves test). It is filed as in vivo. Conditions: 100 mg/kg oral gavage. The method, then: Compound 7a was examined for its ability to attenuate heat hypersensitivity in MrgprX1 mice after receiving sciatic CCI, according to the previously described methods (Proc Natl Acad Sci USA. 2017 Mar. 7; 114(10):E1996-E2005). Paw withdrawal latency (PWL) to noxious heat stimuli was measured with the Hargreaves test. The results are summarized in FIG. 2 (** P<0.01, *** P<0.001 vs. vehicle; ##P<0.01, ###P<0.001, ####P<0.0001 vs. pre-drug. Two-way mixed-model ANOVA with Bonferroni post hoc test. Data are expressed as mean+SD).

For data set [5] the following is noted: intrathecal injection; cited from earlier work.

Consider nine molecules from patent US20240002395A1, “COMPOUNDS AND THEIR USE FOR TREATING NEUROPATHIC PAIN” (The Johns Hopkins University, priority 2020, published 2024).

SMILES strings stand for the structures. Some results are limits rather than exact numbers.

The EC50 is the concentration giving half of the maximal effect. A word on the Cmax: it is the peak of the concentration-time curve. What is called Tmax is the time at which the peak concentration occurs. As a reminder, the melting point is the temperature, or range, at which the solid turns liquid.

T1 sequence (Q96LB2 whole entry): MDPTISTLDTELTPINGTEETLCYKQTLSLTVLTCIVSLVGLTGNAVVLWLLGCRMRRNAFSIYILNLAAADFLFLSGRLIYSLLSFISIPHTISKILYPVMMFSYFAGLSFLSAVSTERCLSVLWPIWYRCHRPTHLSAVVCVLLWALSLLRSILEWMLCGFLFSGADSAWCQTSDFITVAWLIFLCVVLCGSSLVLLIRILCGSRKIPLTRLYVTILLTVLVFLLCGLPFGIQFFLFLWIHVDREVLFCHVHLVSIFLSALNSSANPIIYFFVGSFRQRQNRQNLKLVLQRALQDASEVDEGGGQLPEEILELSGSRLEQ

For `CC(C)(C)c1sc2ncnc(Oc3ccccc3OC(F)(F)F)c2c1-c1ccc(Cl)c(Cl)c1` [Compound 7a, 6-tert-butyl-5-(3,4-dichlorophenyl)-4-(2-(trifluoromethoxy)phenoxy)thieno[2,3-d]pyrimidine], the EC50 at human MrgprX1 was found to be 100 nM. For the same molecule, the “% remaining after 1-h incubation, Human” value in data set [1] is reported as over 95%. Moreover, the AUC0-last in data set [2] (Brain) came out at 2.37 ± 0.03 µM·h. For the same molecule, the values for the Cmax in data set [2] (Brain), in data set [2] (Plasma) and in data set [2] (Spinal cord) were 0.82 ± 0.05 µM, 39 ± 5.06 µM and 4.6 ± 0.6 µM, respectively. Also, the Tmax in data set [2] (Brain) turned out to be 1.67 ± 0.33 h; in data set [2] (Plasma), 1.67 ± 0.33 h; in data set [2] (Spinal cord), 1.17 ± 0.44 h. Further, the “% remaining after 1-h incubation, Mouse” value in data set [3] is recorded as 25%. The “ipsilateral paw withdrawal latency (PWL) to noxious heat” value in data set [4] (1-2 hours after dosing, day 12 and day 26 post-CCI, vs pre-drug level) is “significantly increased from pre-drug level”. The “contralateral paw withdrawal latency (PWL) to noxious heat” value in data set [4] (compared to pre-drug baseline or vehicle-treated group) is reported as “no significant changes”.
With `CC(C)(C)c1sc2ncnc(Oc3c(F)cccc3OC(F)(F)F)c2c1-c1ccc(F)c(F)c1` [Compound 7al, 6-tert-butyl-5-(3,4-difluorophenyl)-4-(2-fluoro-6-(trifluoromethoxy)phenoxy)thieno[2,3-d]pyrimidine], the melting point worked out at 150 °C. Moreover, the EC50 on human MrgprX1 came out at 20 nM. In addition, the “% remaining after 1-h incubation, Human” value in data set [1] is given as over 95%. The “% remaining after 1-h incubation, Mouse” value in data set [3] was over 95%.
Consider `CC(C)(C)c1sc2ncnc(Oc3c(F)cccc3OC(F)(F)F)c2c1-c1ccc(Cl)c(Cl)c1` [Compound 7b, 6-tert-butyl-5-(3,4-dichlorophenyl)-4-(2-fluoro-6-(trifluoromethoxy)phenoxy)thieno[2,3-d]pyrimidine], for which the melting point was 134 to 137 °C. In addition, the EC50 on human MrgprX1 is 50 nM. In addition, the “% remaining after 1-h incubation, Human” value in data set [1] is over 95%. For the same molecule, the “% remaining after 1-h incubation, Mouse” value in data set [3] is 74%.
The corresponding values for `Cc1sc2ncnc(Oc3ccccc3F)c2c1C` [Compound 7ba, 4-(2-fluorophenoxy)-5,6-dimethylthieno[2,3-d]pyrimidine] are 144 °C, 200 nM, under 5% and under 5%.
Take `Cc1sc2ncnc(Oc3ccccc3F)c2c1-c1ccccc1` [Compound 7bb, 4-(2-fluorophenoxy)-6-methyl-5-phenylthieno[2,3-d]pyrimidine]: the melting point stood at 158 °C. For the same molecule, the EC50 on human MrgprX1 is 400 nM. In addition, the “% remaining after 1-h incubation, Human” value in data set [1] is 12%. The “% remaining after 1-h incubation, Mouse” value in data set [3] is on record as under 5%.
Consider `CC(C)(C)c1cc2c(Oc3ccccc3F)ncnc2s1` [Compound 7bc, 6-(tert-butyl)-4-(2-fluorophenoxy)thieno[2,3-d]pyrimidine], for which the EC50 on human MrgprX1 came out at 400 nM. Moreover, in data set [1], the “% remaining after 1-h incubation, Human” value turned out to be 61%. Besides, the “% remaining after 1-h incubation, Mouse” value in data set [3] is recorded as under 5%.
As to `CC(C)(C)c1sc2ncnc(Oc3ccccc3F)c2c1-c1ccccc1` [Compound 7bd, 6-(tert-butyl)-4-(2-fluorophenoxy)-5-phenylthieno[2,3-d]pyrimidine], the melting point is 81 to 82 °C. The EC50 on human MrgprX1 was determined as 300 nM. Moreover, in data set [1], the “% remaining after 1-h incubation, Human” value is listed as 78%. In data set [3], the “% remaining after 1-h incubation, Mouse” value is given as under 5%.
The corresponding values for `CC(C)(C)c1sc2ncnc(Oc3c(F)cccc3F)c2c1-c1ccc(Cl)c(Cl)c1` [Compound 7n, 6-tert-butyl-5-(3,4-dichlorophenyl)-4-(2,6-difluorophenoxy)thieno[2,3-d]pyrimidine] are 205 °C, 20 nM, 93% and 36%.
With `CCOc1ccccc1NC(=O)c1ccccc1NS(=O)(=O)C1CC1` [ML382, 2-(cyclopropanesulfonamido)-N-(2-ethoxyphenyl)benzamide], the “efficacy in preclinical models of pain” value in data set [5] is recorded as “showed efficacy”.
